Structures are written as SMILES. Activity calls are given as the source filed them. No cut-off for these calls is given here.

From ChEMBL document CHEMBL3399989, “PTP1B inhibitors from stems of Angelica keiskei (Ashitaba)” (Bioorg Med Chem Lett, 2015) come the findings set out here.

Experiment [1] has as its target T1, Tyrosine-protein phosphatase non-receptor type 1 (Homo sapiens, UniProt P18031).
T1 sequence (P18031 whole entry): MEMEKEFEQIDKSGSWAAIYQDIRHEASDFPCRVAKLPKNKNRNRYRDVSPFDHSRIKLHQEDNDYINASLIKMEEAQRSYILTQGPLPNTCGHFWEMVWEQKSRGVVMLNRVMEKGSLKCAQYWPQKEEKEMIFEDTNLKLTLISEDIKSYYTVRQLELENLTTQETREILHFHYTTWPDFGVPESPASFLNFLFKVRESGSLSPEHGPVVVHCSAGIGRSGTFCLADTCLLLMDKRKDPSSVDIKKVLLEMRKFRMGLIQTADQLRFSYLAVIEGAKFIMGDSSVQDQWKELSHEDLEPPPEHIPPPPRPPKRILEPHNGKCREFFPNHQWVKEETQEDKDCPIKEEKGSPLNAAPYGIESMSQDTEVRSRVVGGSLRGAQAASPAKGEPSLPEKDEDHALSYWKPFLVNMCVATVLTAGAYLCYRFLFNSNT
In words: Inhibition of PTP1B (unknown origin) using pNPP substrate measured after 3 mins by colorimetric assay.

In experiment [2] the target is T2, Tyrosine-protein phosphatase non-receptor type 1 (Homo sapiens) (UniProt P18031).
T2 sequence (whole entry): T1 sequence (P18031 whole entry)
Description: Inhibition of PTP1B (unknown origin) at 20 ug/ml using pNPP substrate measured after 3 mins by colorimetric assay.

The target in experiment [3] is T2, Tyrosine-protein phosphatase non-receptor type 1 (Homo sapiens). In words: Inhibition of PTP1B (unknown origin) using pNPP substrate by colorimetric method based enzyme kinetics assay. The note with it: TDE = time-dependent effect.
Experiment [4] shares this target. In words: Competitive inhibition of PTP1B (unknown origin) assessed as increase in substrate Km at 1.5 to 6 uM using pNPP substrate by colorimetric method based Lineweaver-Burk plot method.
The target is the same in experiment [5]. Description: Competitive inhibition of PTP1B (unknown origin) assessed as unchanged Vmax level at 1.5 to 6 uM using pNPP substrate by colorimetric method based Lineweaver-Burk plot method.
Experiment [6] shares this target. In words: Fast-binding inhibition of PTP1B (unknown origin) using pNPP substrate by colorimetric method based enzyme kinetics assay.

In the case of `C/C=C(/C)C(=O)O[C@@H]1Cc2c(ccc3ccc(=O)oc23)OC1(C)C` [JATAMANSIN], in experiment [1], it took 35.2 µM to reach half-maximal inhibition (IC50). In experiment [2], the inhibition (usually the percentage by which the read-out fell short of the control) worked out at 93.5%. `O=c1c(O[C@@H]2OC[C@H](O)[C@H](O)[C@H]2O)c(-c2ccc(O)c(O)c2)oc2cc(O)cc(O)c12` yielded an inhibition in experiment [2] of less than 50%. Same read-out and setting: the figure for `C/C=C(/C)C(=O)O[C@H]1c2c(ccc3ccc(=O)oc23)OC(C)(C)[C@H]1O` is less than 50%. For `C=C(C)C(O)Cc1c(OC)ccc(C(=O)/C=C/c2ccc(O)cc2)c1O` (centres undefined) [XANTHOANGELOL D], in experiment [1], it took 11.2 µM to reach half-maximal inhibition (IC50). Besides, the inhibition in experiment [2] was found to be 96.8%.

As to `CC(C)=CCC/C(C)=C/Cc1c(O)ccc(C(=O)/C=C/c2ccc(O)cc2)c1O` [XANTHOANGELOL], the half-inhibitory concentration (IC50) (usually the concentration needed to halve the response being measured) in experiment [1] was 5.02 µM. This compound had an inhibition in experiment [2] of 79.8%. The matching figures for `C=C[C@@H](O)C#CC#C[C@@H](O)/C=C\CCCCCCC` [FALCARINDIOL]: 31.6 µM and 97.8%.

`COc1ccc(C(=O)/C=C/c2ccc(O)cc2)c2c1C(O)C(C(C)(C)O)O2` (centres undefined) displayed an inhibition in experiment [2] of less than 50%. On the same count and under the same terms, the same measure for `O=c1c(O[C@@H]2O[C@H](CO)[C@H](O)[C@H](O)[C@H]2O)c(-c2ccc(O)c(O)c2)oc2cc(O)cc(O)c12`: less than 50%. For the compound `C[C@@H]1O[C@@H](Oc2c(-c3ccc(O)c(O)c3)oc3cc(O)cc(O)c3c2=O)[C@H](O)[C@H](O)[C@H]1O` [QUERCITRIN], 39 µM corresponded to half-maximal inhibition in experiment [1] (IC50). Besides, the inhibition in experiment [2] was determined as 64.4%. Consider `C=C(C)C(=O)Cc1c(OC)ccc(C(=O)/C=C/c2ccc(O)cc2)c1O`, for which the inhibition result in experiment [3] was “tde”; in experiment [2], 85.2%. Moreover, the inhibition result in experiment [4], in experiment [5] and in experiment [6] was “Active” in each case. In addition, in experiment [1], the IC50 was 2.33 µM. Consider `COc1ccc(C(=O)/C=C/c2ccc(O)cc2)c2c1[C@H](OC)[C@H](O)C(C)(C)O2`, for which the inhibition in experiment [2] was less than 50%.

In experiment [1], `COc1c2ccoc2cc2oc(=O)ccc12` [BERGAPTEN] had an IC50 of 11.7 µM. The same compound showed an inhibition in experiment [2] of 98.4%. The matching figures for `C=C(C)C(Cc1c(OC)ccc(C(=O)/C=C/c2ccc(O)cc2)c1O)OO` (centres undefined): 3.86 µM and 99.4%. With `CC1(C)Oc2ccc3ccc(=O)oc3c2[C@@H](O)[C@H]1O` (relative stereo), the midpoint of inhibition in experiment [1], the IC50, lay at 39.7 µM. The same compound returned an inhibition in experiment [2] of 92.3%. Regarding `COc1ccc(C(=O)/C=C/c2ccc(O)cc2)c(O)c1C/C=C(\C)CCC=C(C)C` [XANTHOANGELOL F], it took 4.11 µM to reach half-maximal inhibition in experiment [1] (IC50). This compound also displayed an inhibition in experiment [2] of 96.8%. Taken in the same sequence, the figures for `CCOC1c2c(OC)ccc(C(=O)/C=C/c3ccc(O)cc3)c2OC1C(C)(C)O` (centres undefined) were 11.1 µM and 91.9%.

In experiment [2], `COc1ccc(C(=O)/C=C/c2ccc(O)cc2)c2c1[C@H](O)[C@H](O)C(C)(C)O2` gave an inhibition of less than 50%. Still for that read-out and setting: the same measure for `C/C=C(/C)C(=O)O[C@H]1[C@@H](O)c2c(ccc3ccc(=O)oc23)OC1(C)C`: less than 50%. In the case of `CC(C)C(=O)O[C@H]1Cc2c(ccc3ccc(=O)oc23)OC1(C)C`, in experiment [1], half-maximal inhibition (IC50) required 30.3 µM. The same compound yielded an inhibition in experiment [2] of 93.7%. Take `COc1c2occc2cc2ccc(=O)oc12`: the inhibition in experiment [2] is less than 50%. The same measure, in the same setting: the same measure for `O=c1cc(-c2ccc(O)c(O)c2)oc2cc(O[C@@H]3O[C@H](CO)[C@@H](O)[C@H](O)[C@H]3O)cc(O)c12`: less than 50%. Compound `COc1ccc(C(=O)/C=C/c2ccc(O)cc2)c(O)c1CC=C(C)C` had a half-maximal inhibitory concentration (IC50) in experiment [1] of 7.3 µM. This compound also displayed an inhibition in experiment [2] of 86%.
